The record followed here is US20220288077A1, “PROSTATITIS TREATMENT” (NATIONAL INSTITUTE OF BIOLOGICAL SCIENCES, priority 2019, published 2022).

For the assay, the system named is carrageenan-induced male rat prostate disease model. Briefly: Carrageenan-induced male rat prostate disease model: representative RIP1, RIP3 and MLKL inhibitors. In kind it is in vivo. The settings on record: list after the methods of the example; protocols based on RIPA-56. The procedure:
Experimental protocols for the compounds of Table 1 were based on those used for RIPA-56. Each inhibitor was intraperitoneally or orally administrated to rat before carrageenan treatment, at the dose of 20 mg/kg to 100 mg/kg.
Each inhibitor was intraperitoneally or orally administrated to rat before carrageenan treatment, at the dose of 20 mg/kg to 100 mg/kg.
All the SD rats were randomly divided into different groups (n=8-10): control group, model group, and compounds-treated groups. For injection of carrageenan or saline, rats were anesthetized with 4% chloral hydrate and were fixed in a supine position. […] A small midline incision was made in the sterile area, then the bladder and the prostate carefully exposed. With a 30-gauge needle, 50 ul sterile suspension of 3% carrageenan (Sigma, MO, USA) or saline (sham group) was injected into both right and left ventral lobes of the prostate gland. […] While an equal amount of solvents were intraperitoneally and orally injected to control rats.
In the case of `CC(C)S(=O)(=O)c1ccc2nccc(Nc3ccc4scnc4c3)c2c1` [GSK'872, N-(6-(isopropylsulfonyl)quinolin-4-yl)benzo[d]thiazol-5-amine], the “listed under heading Active RIP3 Inhibitors” value is “Active”.
With `C=CC(C)(C)C(=O)N1C(=O)C[C@H]1c1ccccc1` [(S)-1-(2,2-dimethylbut-3-enoyl)-4-phenylazetidin-2-one], the “listed under heading Active RIP1 Inhibitors” value was “Active”.
In the case of `CN(c1ccc(NC(=O)Nc2ccc(OC(F)(F)F)cc2)cc1)c1ccnc(Nc2cccc(S(N)(=O)=O)c2)n1` [Compound 1, 3-((4-(methyl(4-(3-(4-(trifluoromethoxy)phenyl)ureido)phenyl)amino)pyrimidin-2-yl)amino)benzenesulfonamide], the “listed under heading Active MLKL Inhibitors” value is reported as “Active”.
As to `CC(C)(C)c1nc(-c2cccc(NS(=O)(=O)c3c(F)cccc3F)c2F)c(-c2ccnc(N)n2)s1` [Dabrafenib, N-[3-[5-(2-amino-4-pyrimidinyl)-2-(1,1-dimethylethyl)-4-thiazolyl]-2-fluorophenyl]-2,6-difluoro-benzenesulfonamide], the “listed under heading Active RIP3 Inhibitors” value is listed as “Active”.
In the case of `CCC(C)(C)C(=O)N(O)Cc1cc(F)c(F)c(F)c1` [N-Hydroxy-2,2-dimethyl-N-(3,4,5-trifluorobenzyl)butanamide], the “listed under heading Active RIP1 Inhibitors” value is “Active”.
Turning to `CC(=O)N1CCC(C(=O)N2N=CC[C@H]2c2ccccc2)CC1` [(S)-1-(4-(5-phenyl-4,5-dihydro-1H-pyrazole-1-carbonyl)piperidin-1-yl)ethanone], the “listed under heading Active RIP1 Inhibitors” value is given as “Active”.
On to `CCC(C)(C)C(=O)N(O)Cc1ccc(F)cc1F` [N-(2,4-Difluorobenzyl)-N-hydroxy-2,2-dimethylbutanamide], for which the “listed under heading Active RIP1 Inhibitors” value is listed as “Active”.
As to `CN1C(=O)[C@@H](NC(=O)c2nnc(Cc3ccccc3)[nH]2)COc2ccccc21` [(S)-5-benzyl-N-(5-methyl-4-oxo-2,3,4,5-tetrahydrobenzo[b][1,4]oxazepin-3-yl)-4H-1,2,4-triazole-3-carboxamide], the “listed under heading Active RIP1 Inhibitors” value is “Active”.
For the molecule `CCC(C)(C)C(=O)N(O)Cc1cc(F)cc(F)c1F` [N-Hydroxy-2,2-dimethyl-N-(2,3,5-trifluorobenzyl)butanamide], the “listed under heading Active RIP1 Inhibitors” value is “Active”.
Regarding `O=C(c1ccccc1)N1N=CC[C@H]1c1ccccc1` [(S)-phenyl(5-phenyl-4,5-dihydro-1H-pyrazol-1-yl)methanone], the “listed under heading Active RIP1 Inhibitors” value is recorded as “Active”.
For `COc1nccnc1NS(=O)(=O)c1ccc(NC(=O)/C=C/c2ccc([N+](=O)[O-])s2)cc1` [Necrosulfonamide, (2E)-N-[4-[[(3-Methoxy-2-pyrazinyl)amino]sulfonyl]phenyl]-3-(5-nitro-2-thienyl)-2-propenamide], the “listed under heading Active MLKL Inhibitors” value is “Active”.
On to `CC(C)(C)C(=O)N1N=CC[C@H]1c1ccccn1` [(S)-2,2-dimethyl-1-(5-(pyridin-2-yl)-4,5-dihydro-1H-pyrazol-1-yl)propan-1-one], for which the “listed under heading Active RIP1 Inhibitors” value was “Active”.
Regarding `O=C(N[C@H]1COc2cc(Cl)ccc2NC1=O)c1nnc(Cc2ccccc2)[nH]1` [(S)-5-benzyl-N-(8-chloro-4-oxo-2,3,4,5-tetrahydrobenzo[b][1,4]oxazepin-3-yl)-4H-1,2,4-triazole-3-carboxamide], the “listed under heading Active RIP1 Inhibitors” value was “Active”.
With `CCC(C)(C)C(=O)N1C(=O)C[C@H]1c1ccccc1` [(S)-1-(2,2-dimethylbutanoyl)-4-phenylazetidin-2-one], the “listed under heading Active RIP1 Inhibitors” value is reported as “Active”.
For `Nc1ncnc2occ(-c3ccc(NC(=O)Nc4cc(C(F)(F)F)ccc4F)cc3)c12` [Cpd27, 1-(4-(4-aminofuro[2,3-d]pyrimidin-5-yl)phenyl)-3-(2-fluoro-5-(trifluoromethyl)phenyl)urea], the “listed under heading Active RIP1 Inhibitors” value was “Active”.
Regarding `CCC(C)(C)C(=O)N(O)Cc1ccc(F)c(F)c1F` [N-Hydroxy-2,2-dimethyl-N-(2,3,4-trifluorobenzyl)butanamide], the “listed under heading Active RIP1 Inhibitors” value is given as “Active”.
For `Cn1c(=O)c2c(nc(S(C)(=O)=O)n2C)n(CC#N)c1=O` [TC13-107, 2-(1,7-dimethyl-8-(methylsulfonyl)-2,6-dioxo-1H-purin-3(2H,6H,7H)-yl)acetonitrile], the “listed under heading Active MLKL Inhibitors” value is given as “Active”.
As to `CN1C(=O)N[C@H](Cc2c[nH]c3c(Cl)cccc23)C1=O` [(R)-5-((7-chloro-1H-indol-3-yl)methyl)-3-methylimidazolidine-2,4-dione], the “listed under heading Active RIP1 Inhibitors” value was “Active”.
On the same count and under the same terms, the entry for `O=C1CCCc2ccc(Br)cc2N1` [8-bromo-4,5-dihydro-1H-benzo[b]azepin-2(3H)-one] is “Active”.
Take `O=c1c2c3c(sc2ncn1Cc1ccccc1)CCC3` [3-benzyl-6,7-dihydro-3H-cyclopenta[4,5]thieno[2,3-d]pyrimidin-4(5H)-one]: the “listed under heading Active RIP1 Inhibitors” value is reported as “Active”.
For `CN1C(=O)[C@@H](NC(=O)c2cc(Cc3ccccc3)on2)COc2ccccc21` [GSK481, (S)-5-benzyl-N-(5-methyl-4-oxo-2,3,4,5-tetrahydrobenzo[b][1,4]oxazepin-3-yl)isoxazole-3-carboxamide], the “listed under heading Active RIP1 Inhibitors” value is “Active”.
Regarding `COc1ccc(OC)c(CS(=O)(=O)c2nc3c(c(=O)n(C)c(=O)n3C)n2C)c1` [TC13-58, (2,5-dimethoxybenzylsulfonyl)-1,3,7-trimethyl-1H-purine-2,6(3H,7H)-dione], the “listed under heading Active MLKL Inhibitors” value is “Active”.
Still for that read-out and setting: the entry for `Cn1c(=O)c2c(nc(S(=O)(=O)CC3CC3)n2C)n(CC#Cc2cccc(Cl)c2)c1=O` [TC13-119, 3-(3-(3-chlorophenyl)prop-2-yn-1-yl)-8-((cyclopropylmethyl)sulfonyl)-1,7-dimethyl-3,7-dihydro-1H-purine-2,6-dione] is “Active”.
Regarding `O=C(N1CCCC1c1cccc(F)c1)C1(C(F)(F)F)CCCC1` (stereo not shown) [(2-(3-fluorophenyl)pyrrolidin-1-yl)(1-(trifluoromethyl)cyclopentyl)methanone], the “listed under heading Active RIP1 Inhibitors” value is on record as “Active”.
Same read-out and setting: the entry for `CN1C(=O)C(Cc2c[nH]c3ccccc23)NC1=S` (stereo not shown) [Nec-1, 5-((1H-indol-3-yl)methyl)-3-methyl-2-thioxoimidazolidin-4-one] is “Active”.
Turning to `CCn1c(S(C)(=O)=O)nc2c1c(=O)n(C)c(=O)n2C` [TC13-74, 7-ethyl-1,3-dimethyl-8-(methylsulfonyl)-1H-purine-2,6(3H,7H)-dione], the “listed under heading Active MLKL Inhibitors” value is given as “Active”.
As to `CN1C(=O)[C@@H](NC(=O)c2cc(Cc3ccccc3)on2)COc2ccc(-c3nnn[nH]3)cc21` [(S)-5-benzyl-N-(5-methyl-4-oxo-7-(1H-tetrazol-5-yl)-2,3,4,5-tetrahydrobenzo[b][1,4]oxazepin-3-yl)isoxazole-3-carboxamide], the “listed under heading Active RIP1 Inhibitors” value is on record as “Active”.
Turning to `Cc1ccc(CCCCN2C(=O)N[C@H](Cc3c[nH]c4c(Cl)cccc34)C2=O)cc1C#Cc1cnc2cccnn12` [Ponatinib-Nec1s, (R)-5-((7-chloro-1H-indol-3-yl)methyl)-3-(4-(3-(imidazo[1,2-b]pyridazin-3-ylethynyl)-4-methylphenyl)butyl)imidazolidine-2,4-dione], the “listed under heading Active RIP1 Inhibitors” value is recorded as “Active”.
With `Cn1c(=O)c2c(nc(S(C)(=O)=O)n2C)n(C)c1=O` [TC13-4, 1,3,7-trimethyl-8-(methylsulfonyl)-1H-purine-2,6(3H,7H)-dione], the “listed under heading Active MLKL Inhibitors” value is “Active”.
The same measure, in the same setting: the entry for `Cn1c(=O)c2c(nc(S(C)(=O)=O)n2C)n(CC#Cc2cccc(O)c2)c1=O` [TC13-172, 3-(3-(3-hydroxyphenyl)prop-2-yn-1-yl)-1,7-dimethyl-8-(methylsulfonyl)-3,7-dihydro-1H-purine-2,6-dione] is “Active”.
Take `CCC(C)(C)C(=O)N(O)Cc1ccc(F)c(F)c1` [N-(3,4-Difluorobenzyl)-N-hydroxy-2,2-dimethylbutanamide]: the “listed under heading Active RIP1 Inhibitors” value is recorded as “Active”.
Take `O=C(NCc1c(F)ccc(Cl)c1F)c1snnc1C1CC1` [N-(3-chloro-2,6-difluorobenzyl)-4-cyclopropyl-1,2,3-thiadiazole-5-carboxamide]: the “listed under heading Active RIP1 Inhibitors” value is listed as “Active”.
Same read-out and setting: with `C#CC(C)(C)C(=O)N1CC[C@H]1c1ccccc1` [(S)-2,2-dimethyl-1-(2-phenylazetidin-1-yl)but-3-yn-1-one] the entry was “Active”.
Turning to `CNC(=O)c1ccc2c(c1)ncn2-c1ccc(CC(=O)OC(C)(C)C)cc1` [GSK'840, tert-butyl 2-(4-(5-(methylcarbamoyl)-1H-benzo[d]imidazol-1-yl)phenyl)acetate], the “listed under heading Active RIP3 Inhibitors” value is “Active”.
As to `Cc1cc(-c2cnc(N)c3c(-c4ccc5scnc5c4)csc23)n(C)n1` [GSK'843, 3-(benzo[d]thiazol-5-yl)-7-(1,3-dimethyl-1H-pyrazol-5-yl)thieno[3,2-c]pyridin-4-amine], the “listed under heading Active RIP3 Inhibitors” value is listed as “Active”.
On to `C[C@H](NC(=O)c1snnc1C1CC1)c1c(F)cccc1Cl` [(S)—N-(1-(2-chloro-6-fluorophenyl)ethyl)-4-cyclopropyl-1,2,3-thiadiazole-5-carboxamide], for which the “listed under heading Active RIP1 Inhibitors” value is “Active”.
For `CNc1cc(C#CCn2c(=O)n(C)c(=O)c3c2nc(S(=O)(=O)Cc2cc(OC)ccc2OC)n3C)ccn1` [TC13-127, 8-((2,5-dimethoxybenzyl)sulfonyl)-1,7-dimethyl-3-(3-(2-(methylamino)pyridin-4-yl)prop-2-yn-1-yl)-3,7-dihydro-1H-purine-2,6-dione], the “listed under heading Active MLKL Inhibitors” value is on record as “Active”.
